Experimental data: patent publication US20230312587A1, “PTERIDINONE COMPOUNDS AND USES THEREOF” (Vertex Pharmaceutical Incorporated, priority 2018, published 2023)

system: β-catenin-TCF-mediated reporter transcription activity in Colo 205 cells; assay: Colo 205 reporter assay (TCF/LEF luciferase); format: cell-based; conditions: Homo sapiens, COLO 205, 5 h, Colo 205 TCF/LEF luciferase reporter, five hours after addition of compound; read-out: TCF reporter Colo205 IC50
Method in brief: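 Luciferase signal from a TCF/LEF-driven reporter, stably integrated in Colo 205 colon cancer cells, was measured 5 h after compound addition.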

IC50 [nM]	Compound
300 to 1000	Cc1nc(N[C@H]2C[C@@H](COc3ccc4c(c3)OCO4)C2)nc2c1NC(=O)[C@H](C(C)C)N2C [Compound 580, (S)-2-((cis-3-((benzo[d][1,3]dioxol-5-yloxy)methyl)cyclobutyl)amino)-7-isopropyl-4,8-dimethyl-7,8-dihydropteridin-6(5H)-one]
< 300	Cc1nc(N[C@H]2C[C@@H](Cn3nc(C4CC4)cc3C(F)(F)F)C2)nc2c1NC(=O)[C@H](C(C)C)N2C [Compound 581, (S)-2-((cis-3-((3-cyclopropyl-5-(trifluoromethyl)-1H-pyrazol-1-yl)methyl)cyclobutyl)amino)-7-isopropyl-4,8-dimethyl-7,8-dihydropteridin-6(5H)-one]
300 to 1000	Cc1cc(C(F)(F)F)n(C[C@H]2C[C@@H](Nc3nc(C)c4c(n3)N(C)[C@@H](C(C)C)C(=O)N4)C2)n1 [Compound 582, (S)-7-isopropyl-4,8-dimethyl-2-((cis-3-((3-methyl-5-(trifluoromethyl)-1H-pyrazol-1-yl)methyl)cyclobutyl)amino)-7,8-dihydropteridin-6(5H)-one]
< 300	Cc1nc(N[C@H]2C[C@@H](Cn3ccc(Cl)n3)C2)nc2c1NC(=O)[C@H](C(C)C)N2C [Compound 583, (S)-2-((cis-3-((3-chloro-1H-pyrazol-1-yl)methyl)cyclobutyl)amino)-7-isopropyl-4,8-dimethyl-7,8-dihydropteridin-6(5H)-one]
≥ 5000	Cc1nc(N[C@H]2C[C@@H](Cn3nc(N)cc3C(F)(F)F)C2)nc2c1NC(=O)[C@H](C(C)C)N2C [Compound 584, (S)-2-((cis-3-((3-amino-5-(trifluoromethyl)-1H-pyrazol-1-yl)methyl)cyclobutyl)amino)-7-isopropyl-4,8-dimethyl-7,8-dihydropteridin-6(5H)-one]
300 to 1000	Cc1nc(N[C@H]2C[C@@H](Cn3nc(C(F)(F)F)cc3N)C2)nc2c1NC(=O)[C@H](C(C)C)N2C [Compound 585, (S)-2-((cis-3-((5-amino-3-(trifluoromethyl)-1H-pyrazol-1-yl)methyl)cyclobutyl)amino)-7-isopropyl-4,8-dimethyl-7,8-dihydropteridin-6(5H)-one]
< 300	Cc1nc(N[C@H]2C[C@@H](Nc3ccc(C(F)(F)F)nc3)C2)nc2c1NC(=O)[C@H](C(C)C)N2C [Compound 586, (S)-7-isopropyl-4,8-dimethyl-2-((cis-3-((6-(trifluoromethyl)pyridin-3-yl)amino)cyclobutyl)amino)-7,8-dihydropteridin-6(5H)-one]
300 to 1000	Cc1nc(N[C@H]2C[C@H](Nc3ccc(C(F)(F)F)nc3)C2)nc2c1NC(=O)[C@H](C(C)C)N2C [Compound 587, (S)-7-isopropyl-4,8-dimethyl-2-((trans-3-((6-(trifluoromethyl)pyridin-3-yl)amino)cyclobutyl)amino)-7,8-dihydropteridin-6(5H)-one]
< 300	CO[C@H](C)[C@H]1C(=O)Nc2c(C)nc(N[C@H]3C[C@@H](Cn4nccc4C(F)(F)F)C3)nc2N1C [Compound 588, (S)-7-((R)-1-methoxyethyl)-4,8-dimethyl-2-((cis-3-((5-(trifluoromethyl)-1H-pyrazol-1-yl)methyl)cyclobutyl)amino)-7,8-dihydropteridin-6(5H)-one]
< 300	Cc1nc(NC2CN(Cc3cc(F)c(F)c(F)c3)C2)nc2c1NC(=O)[C@H](C(C)C)N2C [Compound 591, (S)-7-isopropyl-4,8-dimethyl-2-((1-(3,4,5-trifluorobenzyl)azetidin-3-yl)amino)-7,8-dihydropteridin-6(5H)-one]
≥ 5000	Cc1nc(NC2CN(S(=O)(=O)c3ccc(F)cc3)C2)nc2c1NC(=O)[C@H](C(C)C)N2C [Compound 592, (7S)-2-((1-((4-fluorophenyl)sulfonyl)azetidin-3-yl)amino)-7-isopropyl-4,8-dimethyl-7,8-dihydropteridin-6(5H)-one]
< 300	CC[C@H]1C(=O)Nc2c(C)nc(N[C@H]3C[C@@H](Cn4nccc4C(F)(F)F)C3)nc2N1C [Compound 593, (S)-7-ethyl-4,8-dimethyl-2-((cis-3-((5-(trifluoromethyl)-1H-pyrazol-1-yl)methyl)cyclobutyl)amino)-7,8-dihydropteridin-6(5H)-one]
1000 to 5000	Cc1nc(NC2CN(C(=O)Cc3ccc(C(F)(F)F)nc3)C2)nc2c1NC(=O)[C@H](C(C)C)N2C [Compound 594, (S)-7-isopropyl-4,8-dimethyl-2-((1-(2-(6-(trifluoromethyl)pyridin-3-yl)acetyl)azetidin-3-yl)amino)-7,8-dihydropteridin-6(5H)-one]
300 to 1000	Cc1nc(NC2CN(C(=O)Cn3ccc(C(F)(F)F)n3)C2)nc2c1NC(=O)[C@H](C(C)C)N2C [Compound 595, (S)-7-isopropyl-4,8-dimethyl-2-((1-(2-(3-(trifluoromethyl)-1H-pyrazol-1-yl)acetyl)azetidin-3-yl)amino)-7,8-dihydropteridin-6(5H)-one]
< 300	Cc1nc(NC2CN(C(=O)c3cc(C(F)(F)F)nn3C)C2)nc2c1NC(=O)[C@H](C(C)C)N2C [Compound 596, (S)-7-isopropyl-4,8-dimethyl-2-((1-(1-methyl-3-(trifluoromethyl)-1H-pyrazole-5-carbonyl)azetidin-3-yl)amino)-7,8-dihydropteridin-6(5H)-one]
1000 to 5000	Cc1nc(NC2CN(C(=O)c3cc(C(F)(F)F)n(C)n3)C2)nc2c1NC(=O)[C@H](C(C)C)N2C [Compound 597, (S)-7-isopropyl-4,8-dimethyl-2-((1-(1-methyl-5-(trifluoromethyl)-1H-pyrazole-3-carbonyl)azetidin-3-yl)amino)-7,8-dihydropteridin-6(5H)-one]
< 300	Cc1nc(N[C@H]2C[C@@H](COc3ccc(OC(F)(F)F)nc3)C2)nc2c1NC(=O)[C@H](C(C)C)N2C [Compound 598, (S)-7-isopropyl-4,8-dimethyl-2-((cis-3-(((6-(trifluoromethoxy)pyridin-3-yl)oxy)methyl)cyclobutyl)amino)-7,8-dihydropteridin-6(5H)-one]
< 300	CO[C@H](C)[C@H]1C(=O)Nc2c(C)nc(N[C@H]3C[C@H](Oc4cc(F)c(F)c(F)c4)C3)nc2N1C [Compound 599, (S)-7-((R)—1-methoxyethyl)-4,8-dimethyl-2-((trans-3-(3,4,5-trifluorophenoxy)cyclobutyl)amino)-7,8-dihydropteridin-6(5H)-one]
1000 to 5000	Cc1nc(NCc2cnn(Cc3ccc(C(F)(F)F)nc3)c2)nc2c1NC(=O)C1(COC1)N2C [Compound 600, 4′,8′-dimethyl-2′-(((1-((6-(trifluoromethyl)pyridin-3-yl)methyl)-1H-pyrazol-4-yl)methyl)amino)-5′,8′-dihydro-6′H-spiro[oxetane-3,7′-pteridin]-6′-one]
300 to 1000	Cc1nc(NCc2ccn(Cc3ccc(C(F)(F)F)nc3)n2)nc2c1NC(=O)C1(CC(F)(F)C1)N2C [Compound 601, 3,3-difluoro-4′,8′-dimethyl-2′-(((1-((6-(trifluoromethyl)pyridin-3-yl)methyl)-1H-pyrazol-3-yl)methyl)amino)-5′,8′-dihydro-6′H-spiro[cyclobutane-1,7′-pteridin]-6′-one]
300 to 1000	COc1cc(F)ccc1CN1CC(Nc2nc(C)c3c(n2)N(C)[C@@H](C(C)C)C(=O)N3)C1 [Compound 603, (S)-2-((1-(4-fluoro-2-methoxybenzyl)azetidin-3-yl)amino)-7-isopropyl-4,8-dimethyl-7,8-dihydropteridin-6(5H)-one]
1000 to 5000	Cc1nc(NCc2cnn(Cc3ccc(C(F)(F)F)nc3)c2)nc2c1NC(=O)[C@H](CO)N2C [Compound 604, (S)-7-(hydroxymethyl)-4,8-dimethyl-2-(((1-((6-(trifluoromethyl)pyridin-3-yl)methyl)-1H-pyrazol-4-yl)methyl)amino)-7,8-dihydropteridin-6(5H)-one]
≥ 5000	Cc1nc(NC2CN(C(=O)c3cocn3)C2)nc2c1NC(=O)[C@H](C(C)C)N2C [Compound 605, (S)-7-isopropyl-4,8-dimethyl-2-((1-(oxazole-4-carbonyl)azetidin-3-yl)amino)-7,8-dihydropteridin-6(5H)-one]
300 to 1000	Cc1nc(NC2CN(C(=O)CC3CC(F)(F)C3)C2)nc2c1NC(=O)[C@H](C(C)C)N2C [Compound 606, (S)-2-((1-(2-(3,3-difluorocyclobutyl)acetyl)azetidin-3-yl)amino)-7-isopropyl-4,8-dimethyl-7,8-dihydropteridin-6(5H)-one]
< 300	Cc1nc(NC2CN(C(=O)c3ccc(OC(F)(F)F)nc3)C2)nc2c1NC(=O)[C@H](C(C)C)N2C [Compound 607, (S)-7-isopropyl-4,8-dimethyl-2-((1-(6-(trifluoromethoxy)nicotinoyl)azetidin-3-yl)amino)-7,8-dihydropteridin-6(5H)-one]
< 300	Cc1nc(NCc2cnn(Cc3ccnc(Cl)c3)c2)nc2c1NC(=O)[C@H](C1CC1)N2C [Compound 608, (S)-2-(((1-((2-chloropyridin-4-yl)methyl)-1H-pyrazol-4-yl)methyl)amino)-7-cyclopropyl-4,8-dimethyl-7,8-dihydropteridin-6(5H)-one]
1000 to 5000	Cc1nc(NC2CN(C(=O)c3cn(C)nc3C(F)(F)F)C2)nc2c1NC(=O)[C@H](C(C)C)N2C [Compound 609, (S)-7-isopropyl-4,8-dimethyl-2-((1-(1-methyl-3-(trifluoromethyl)-1H-pyrazole-4-carbonyl)azetidin-3-yl)amino)-7,8-dihydropteridin-6(5H)-one]
≥ 5000	Cc1nc(C(=O)N2CC(Nc3nc(C)c4c(n3)N(C)[C@@H](C(C)C)C(=O)N4)C2)co1 [Compound 610, (S)-7-isopropyl-4,8-dimethyl-2-((1-(2-methyloxazole-4-carbonyl)azetidin-3-yl)amino)-7,8-dihydropteridin-6(5H)-one]

Compound	IC50 [nM]
Cc1nc(NCc2cnn(Cc3ccc(C(F)(F)F)nc3)c2)nc2c1NC(=O)[C@H](COC(C)(C)C)N2C [Compound 590, (S)-7-(tert-butoxymethyl)-4,8-dimethyl-2-(((1-((6-(trifluoromethyl)pyridin-3-yl)methyl)-1H-pyrazol-4-yl)methyl)amino)-7,8-dihydropteridin-6(5H)-one]	300 to 1000
